Patent US20250382270A1, “3-DIARYLMETHYLENES AND USES THEREOF” (Atux Iskay LLC, priority 2020, published 2025)

Columns and labels:
[1] = system: A549 cells; experiment: A549 cell growth inhibition assay (alamarBlue); assay type: cell-based; settings: Homo sapiens, 72 hours treatment, alamarBlue fluorescence
Experimental: Example compounds 1a, 2, 4 and 6 were assayed in an A549 cell growth inhibition assay as follows. A549 cells were cultured in DMEM medium with supplement of 10% FBS and 1% Pen-strep. Assay conditions: to perform the proliferation assay, A549 cells were seeded at 5000 cells/90 μl growth medium/well on 96-well black clear-bottom tissue culture plate. Cells were incubated at 37° C. and 5% CO2 overnight to allow them to recover and reattach. Next day cells were treated with tested compounds for 72 hours. After treatment, cell proliferation was measured by Fluorescent quantitation of alamarBlue reagent. The alamarBlue assay incorporates a fluorometric/colorimetric growth indicator based on detection of metabolic activity. Specifically, resazurin, the active ingredient of alamarBlue reagent, is blue in color and virtually non-fluorescent. Upon entering cells, resazurin is reduced to resorufin, a compound that is red in color and highly fluorescent. Continued cell growth maintains a reduced environment, therefore increasing the overall fluorescence and color of the media surrounding cells. Our experiment has shown that the fluorescence intensity of alamarBlue reagent was directly proportional to cell number. To perform the alamarBlue assay, 10 μl of alamarBlue reagent was added to each well and the plate was incubated at 37° C. for an additional 1-4 hours. Fluorescence intensity was measured at an excitation of 530 nm and an emission of 590 nm using a BioTek Synergy™ 2 microplate reader.
Data analysis. Cell proliferation assays in triplicate were performed at each concentration. The fluorescent intensity data were analyzed using the computer software, Graphpad Prism. In the absence of the compound, the fluorescent intensity (Ft) in each data set was defined as 100%. In the absence of cells, the fluorescent intensity (Fb) in each data set was defined as 0%. The percent cell in the presence of each compound was calculated according to the following equation: % cell=(F-Fb)/(Ft-Fb), where F=the fluorescent intensity in the presence of the compound, Fb=the fluorescent intensity in the absence of cells, and Ft=the fluorescent intensity in the absence of the compound. The values of % cell versus a series of compound concentrations were then plotted using non-linear regression analysis of Sigmoidal dose-response curve generated with the equation Y=B+(T-B)/1+10^((LogEC50-X)×Hill Slope), where Y=percent cell, B=minimum percent cell, T=maximum percent cell, X=logarithm of compound and Hill Slope=slope factor or Hill coefficient. The IC50 value was determined by the concentration causing a half-maximal percent activity.

[2] = system: A172 glioblastoma cells; experiment: A172 cell growth inhibition assay (CellTiter-Glo); assay type: cell-based; settings: Homo sapiens, A 172, 48-72 hours treatment, CellTiter-Glo luminescence, test range 1-30 μM
Experimental: Compounds were also assayed in an A172 cell growth inhibition assay as follows. A172 glioblastoma cells were cultured in Dulbecco's modified Eagle's medium (DMEM) supplemented with 10% fetal bovine serum and 1% Penicillin-streptomycin. Incubation was performed at 37° C. and 5% CO2.
A172 cells were seeded at 3000-3500 cells/90 ul growth medium per well on 96-well tissue culture plates. Cells were incubated overnight to allow them to recover and reattach. Next day cells were treated with tested compounds and incubated for 48-72 hours.
Cell Proliferation assays in triplicate were performed at each concentration. Compounds test range was 1-30 μM (0, 5, 10, 15, 20, 25, and 30). The compounds were dissolved in DMSO. A series of dilutions were made in 1% DMSO in growth medium so that the final concentration of DMSO is 0.1% in all of treatments.
After treatment, cells were allowed to equilibrate at room temperature for ½ to one hour. Cell proliferation was measured by Luminescence quantification using Promega CellTiter-Glo Luminescent Cell Viability Assay. To perform the assay, 100 μl of Celltiter-Glo substrate was added to each well, plates were shake for 2 minutes and allowed to equilibrate for 10 minutes at room temperature. Luminescence intensity was measured using the Spectramax i3x plate reader.
The Luminescence intensity data were analyzed using the computer software Graphpad Prism. In the absence of the compound, the luminescence intensity (Lr) in each data set was defined as 100% cell viability. The percent cell in the presence of each compound was calculated according to the following equation: […], where L=the luminescence intensity in the presence of the compound.
The values of % cell versus a series of compound concentrations (0, 5, 10, 15, 20, 25, and 30 μM) were then plotted using nonlinear regression analysis of Sigmoidal dose-response curve. IC50 values were determined by the concentration causing a half-maximal percent activity.

COc1cccc2c1C(=O)c1c(O)c3c(c(O)c1C2=O)C[C@@](O)(C(=O)CO)C[C@@H]3O[C@H]1C[C@H](N)[C@H](O)[C@H](C)O1 [Doxorubicin, reference compound]
IC50 [1]: 0.34 µM

O=S(=O)(Nc1ccc(OC(F)(F)F)cc1)N1CCCC(C(c2ccc(F)cc2)c2ccc(F)cc2)C1 (centres unmarked) [Example 1a, 3-(bis(4-fluorophenyl)methyl)-N-(4-(trifluoromethoxy)phenyl)piperidine-1-sulfonamide]
IC50 [2]: 12.1 µM
IC50 [1]: 8.27 µM

O=S(=O)(Nc1ccccc1)N1CCCC(C(c2ccc(F)cc2)c2ccc(F)cc2)C1 (centres unmarked) [Example 2, 3-(bis(4-fluorophenyl)methyl)-N-phenylpiperidine-1-sulfonamide]
IC50 [2]: 23 µM
IC50 [1]: 22.9 µM

O=S(=O)(Nc1ccc(C(F)(F)F)cc1)N1CCCC(C(c2ccc(F)cc2)c2ccc(F)cc2)C1 (centres unmarked) [Example 4, 3-(bis(4-fluorophenyl)methyl)-N-(4-(trifluoromethyl)phenyl)piperidine-1-sulfonamide]
IC50 [2]: 17.1 µM
IC50 [1]: 9.61 µM

O=S(=O)(Nc1ccc(Cl)cc1)N1CCCC(C(c2ccc(F)cc2)c2ccc(F)cc2)C1 (centres unmarked) [Example 6, 3-(bis(4-fluorophenyl)methyl)-N-(4-chlorophenyl)piperidine-1-sulfonamide]
IC50 [1]: 12.8 µM

O=S(=O)(Nc1ccc(OC(F)(F)F)cc1)N1CCOC(C(c2ccc(F)cc2)c2ccc(F)cc2)C1 (centres unmarked) [Example 19, 2-(bis(4-fluorophenyl)methyl)-N-(4-(trifluoromethoxy)phenyl)morpholine-4-sulfonamide]
IC50 [2]: 18.2 µM

O=S(=O)(Nc1ccc(C(F)(F)F)cc1)N1CCOC(C(c2ccc(F)cc2)c2ccc(F)cc2)C1 (centres unmarked) [Example 22]
IC50 [2]: 26 µM

O=S(=O)(Nc1ccc(Cl)cc1)N1CCOC(C(c2ccc(F)cc2)c2ccc(F)cc2)C1 (centres unmarked) [Example 25]
IC50 [2]: 19.4 µM

O=S(=O)(Nc1cccc(Cl)c1)N1CCOC(C(c2ccc(F)cc2)c2ccc(F)cc2)C1 (centres unmarked) [Example 26]
IC50 [2]: 28.2 µM

O=S(=O)(Nc1ccc(OC(F)(F)F)cc1)N1CCCC(C2c3ccccc3CCc3ccccc32)C1 (centres unmarked) [Example 37]
IC50 [2]: 11 µM

O=S(=O)(Nc1ccc(C(F)(F)F)cc1)N1CCCC(C2c3ccccc3CCc3ccccc32)C1 (centres unmarked) [Example 40]
IC50 [2]: 15.8 µM

O=[N+]([O-])c1ccc(NS(=O)(=O)N2CCCC(C3c4ccccc4CCc4ccccc43)C2)cc1 (centres unmarked) [Example 42]
IC50 [2]: 51 µM

O=S(=O)(Nc1ccc(OC(F)(F)F)cc1)N1CCCC(C2c3ccc(F)cc3CCc3cc(F)ccc32)C1 (centres unmarked) [Example 71]
IC50 [2]: 13 µM

O=S(=O)(Nc1ccc(Cl)c(Cl)c1)N1CCOC(C(c2ccc(F)cc2)c2ccc(F)cc2)C1 (centres unmarked) [Example 93]
IC50 [2]: 45 µM

O=S(=O)(Nc1cc(Cl)cc(Cl)c1)N1CCOC(C(c2ccc(F)cc2)c2ccc(F)cc2)C1 (centres unmarked) [Example 94]
IC50 [2]: 23.2 µM

O=S(=O)(NCc1ccc(F)cc1)N1CCCC(C2c3ccccc3CCc3ccccc32)C1 (centres unmarked) [Example 96]
IC50 [2]: 16.1 µM

O=S(=O)(NCc1ccc(F)cc1)N1CCOC(C(c2ccc(F)cc2)c2ccc(F)cc2)C1 (centres unmarked) [Example 97]
IC50 [2]: 27.2 µM

O=S(=O)(NCc1ccc(C(F)(F)F)cc1)N1CCCC(C2c3ccccc3CCc3ccccc32)C1 (centres unmarked) [Example 98]
IC50 [2]: 10.4 µM

O=S(=O)(Nc1ncc(C(F)(F)F)cn1)N1CCCC(C2c3ccccc3CCc3ccccc32)C1 (centres unmarked) [Example 99]
IC50 [2]: 25.3 µM

O=S(=O)(Nc1ccc(Cl)c(Cl)c1)N1CCCC(C(c2ccc(F)cc2)c2ccc(F)cc2)C1 (centres unmarked) [Example 100]
IC50 [2]: 16.2 µM

O=S(=O)(Nc1cccc(C(F)(F)F)c1)N1CCCC(C(c2ccc(F)cc2)c2ccc(F)cc2)C1 (centres unmarked) [Example 101]
IC50 [2]: 22.1 µM

O=S(=O)(Nc1cccc(C(F)(F)F)c1)N1CCOC(C(c2ccc(F)cc2)c2ccc(F)cc2)C1 (centres unmarked) [Example 102]
IC50 [2]: 20.6 µM

CC(C)(C)OC(=O)Nc1ccc(NS(=O)(=O)N2CCCC(C(c3ccc(F)cc3)c3ccc(F)cc3)C2)cc1 (centres unmarked) [Example 103]
IC50 [2]: 10.3 µM

O=S(=O)(Nc1ccc(OC(F)(F)F)cc1)N1CCCC(=C(c2ccc(F)cc2)c2ccc(F)cc2)C1 [Example 104]
IC50 [2]: 14.8 µM

O=S(=O)(Nc1ccc(OC(F)(F)F)cc1)N1CCCC(=C(c2ccccc2)c2ccccc2)C1 [Example 105]
IC50 [2]: 20.3 µM

O=S(=O)(Nc1ccc2c(c1)OC(F)(F)O2)N1CCCC(C2c3ccccc3CCc3ccccc32)C1 (centres unmarked) [Example 106]
IC50 [2]: 12.8 µM

O=S(=O)(Nc1ccc(Cl)cc1)N1CCCC(=C(c2ccc(F)cc2)c2ccc(F)cc2)C1 [Example 108]
IC50 [2]: 16.1 µM

O=S(=O)(Nc1ccc(C(F)(F)F)cc1)N1CCCC(=C(c2ccc(F)cc2)c2ccc(F)cc2)C1 [Example 109]
IC50 [2]: 19.2 µM

O=S(=O)(Nc1ccccc1)N1CCCC(=C(c2ccc(F)cc2)c2ccc(F)cc2)C1 [Example 110]
IC50 [2]: 25 µM

O=S(=O)(Nc1cccc(C(F)(F)F)c1)N1CCCC(=C(c2ccc(F)cc2)c2ccc(F)cc2)C1 [Example 111]
IC50 [2]: 30 µM

O=S(=O)(Nc1cccc(OC(F)(F)F)c1)N1CCCC(=C(c2ccc(F)cc2)c2ccc(F)cc2)C1 [Example 112]
IC50 [2]: 24 µM

O=S(=O)(Nc1cccc(OC(F)(F)F)c1)N1CCCC(C2c3ccccc3CCc3ccccc32)C1 (centres unmarked) [Example 113]
IC50 [2]: 10.8 µM
